# According to US8188089B2, “Tylophorine analogs as antitumor agents” (The University of North Carolina at Chapel Hill, priority 2006, dated 2012):
# Structures can show the parent of a compound that is named as a salt.
# Assays:
# [1] = system: human A549 lung cancer cell line; assay: Cell growth inhibition assay (SRB), Example 1; format: cell-based; conditions: for IC50: 72 h, A549, SRB, 3 days exposure; for EC50: table footnotes of Example 1, A549
# Source text: Results and discussion. […] Etoposide (VP-16) was used as the reference compound.
# Cell Growth Inhibition Assay. The human A549 lung cancer cell line was used for the cytotoxicity screening of PBT derivatives using the cell-based sulforhodamine B (SRB) microtitre plate assay. […] Duration of compound exposure was 3 days.
# DU-145 (prostate) = assay: Cell growth inhibition assay (SRB), Example 2, DU-145; format: cell-based, human; conditions: Table 6, 72-h continuous treatment
# Source text: (§1) Drug-Resistance Study. Twelve active compounds [including four hydrochloride salts (18b, 22b, 24b, 32b) of corresponding active free bases (18a, 22a, 24a, 32a)] were further screened against an extended panel of human tumor cell lines including DU-145 (prostate), ZR-751 (breast), KB (nasopharyngeal), and KB-VIN (multidug-resistant KB subline) in order to explore their antitumor spectra and drug-resistance profiles. Four compounds were used as reference compounds. Antofine is a positional isomer of tylophorine isolated from Asclepiadaceae by Dr. T. S. Wu in Taiwan (Wu, P. L. et al., Heterocycles 2002; 57:2401). […] Doxorubicin (Adriamycin), vincristine, and etoposide (VP-16, Vepesid®) are widely used anticancer agents for treating a range of solid tumors.
# (§2) Cell Growth Inhibition Assay. The sulforhodamine B assay was used according to the procedures developed and validated at NCI. The in vitro anticancer activities are expressed as ED50 values, which is the test compound concentration (μM) that reduced the cell number by 50% after 72-h of continuous treatment. The values were interpolated from dose-response data. Each test was performed in triplicate with variation less than 5%. The ED50 values determined in each of independent tests varied less than 10%. Compound stock solutions were prepared in DMSO with the final solvent concentration ≦1% DMSO (v/v), a concentration without effect on cell replication. The cells were cultured at 37° C. in RPMI-1640 supplemented with 25 mM N-2-hydroxyethylpiperazine-N′-2-ethanesulfonic acid (HEPES), […], 10% (v/v) fetal bovine serum, and 100 μg/mL kanamycin in a humidified atmosphere containing 5% CO2.
# KB (nasopharyngeal) = assay: Cell growth inhibition assay (SRB), Example 2, KB; format: cell-based, human; conditions: Table 6, 72-h continuous treatment
# Source text: as §1, §2
# ZR-751 (breast) = assay: Cell growth inhibition assay (SRB), Example 2, ZR-751; format: cell-based, human; conditions: Table 6, 72-h continuous treatment
# Source text: as §1, §2
# [2] = system: human A549 lung cancer cell line; assay: Cell growth inhibition assay (SRB), Example 2, A549; format: cell-based
# Source text: Cell Growth Inhibition Assay. The sulforhodamine B assay was used according to the procedures developed and validated at NCI. […] The values were interpolated from dose-response data.
# [3] = system: KB-VIN (multidug-resistant KB subline); assay: Cell growth inhibition assay (SRB), Example 2, KB-VIN; format: cell-based, human; conditions: Table 6, 72-h continuous treatment
# Source text: as §1, §2
# [4] = Homo sapiens, A549, 72 h, Table 4, ED50, 72-h continuous treatment, NA = not active, read-out: A549 (μM), in vitro anticancer activity against A549 lung cancer cells
# [5] = Homo sapiens, A549, 72 h, Table 6, 72-h continuous treatment, read-out: EC50 (μM) A549
# [6] = Table 4, ED50, 72-h continuous treatment, NA = not active, read-out: A549 (μM), in vitro anticancer activity against A549 lung cancer cells
# [7] = Table 6, 72-h continuous treatment, read-out: EC50 (μM) A549
# [8] = Homo sapiens, Table 1, NA = Not Active
smiles,measurement,setting,value
"COc1ccc(/C(=C\c2cc(OC)c(OC)cc2[N+](=O)[O-])CN2CCC[C@H]2CO)cc1 [Compound 41, {1-[3-(4,5-Dimethoxy-2-nitrophenyl)-2-(4-methoxyphenyl)-allyl]-pyrrolidin-2-yl}-methanol]",IC50,"[1]; Homo sapiens, Table 3",11700 nM
"CC[C@H]1CN2CCc3cc(OC)c(OC)cc3[C@@H]2C[C@@H]1C[C@H]1NCCc2cc(OC)c(OC)cc21 [Emetine, reference compound]",EC50,"DU-145 (prostate); Homo sapiens, DU-145, 72 h",0.06 µM
same,EC50,"KB (nasopharyngeal); Homo sapiens, 72 h",0.04 µM
same,EC50,"ZR-751 (breast); Homo sapiens, ZR-75-1, 72 h",0.1 µM
same,EC50,[2]; [4],0.04 µM
same,EC50,[2]; [5],0.04 µM
same,EC50,"[3]; Homo sapiens, KBVIN, 72 h",> 2 µM
COc1ccc2c(CNCCCCCO)cc3cc4c(cc3c2c1)OCO4,melting point,,125 to 126 °C
"COc1ccc2c(CN3CCC(CO)CC3)cc3cc4c(cc3c2c1)OCO4 [Compound 24a, N-(2,3-Methylenedioxy-6-methoxy-phenanthr-9-ylmethyl)-L-4-piperidinemethanol]",EC50,DU-145 (prostate),0.03 µM
same,EC50,KB (nasopharyngeal),0.24 µM
same,EC50,ZR-751 (breast),0.03 µM
same,EC50,[2]; [6],0.08 µM
same,EC50,[2]; [7],0.08 µM
same,EC50,[3],0.09 µM
"COc1ccc2c(CN3CCC(CCO)CC3)cc3cc4c(cc3c2c1)OCO4 [Compound 32a, N-(2,3-Methylenedioxy-6-methoxy-phenanthr-9-ylmethyl)-4-piperidineethanol]",EC50,"DU-145 (prostate); Homo sapiens, DU-145, 72 h",0.15 µM
same,EC50,KB (nasopharyngeal),0.42 µM
same,EC50,"ZR-751 (breast); Homo sapiens, ZR-75-1, 72 h",0.03 µM
same,melting point,,148 to 149 °C
same,EC50,[2]; [4],0.15 µM
same,EC50,[2]; [5],0.15 µM
same,EC50,[3],0.5 µM
"COc1ccc2c(CN3CCCC[C@H]3CO)cc3cc(OC)c(OC)cc3c2c1 [Compound 38, N-(2,3,6-Trimethoxyphenanthr-9-ylmethyl)-L-2-piperidinemethanol]",EC50,[1],6300 nM
"O=C(O)[C@@H]1CCCN1Cc1cc2cc3c(cc2c2cc(OCc4ccccc4)ccc12)OCO3 [Compound 18, N-(2,3-Methylenedioxy-6-benzyloxy-phenanthr-9-ylmethyl)-L-proline]",melting point,,147 to 149 °C
same,IC50,[1]; [8],4400 nM
same,EC50,[1]; Homo sapiens,4400 nM
"CC[C@]1(O)C[C@H]2CN(CCc3c([nH]c4ccccc34)[C@@](C(=O)OC)(c3cc4c(cc3OC)N(C=O)[C@H]3[C@@](O)(C(=O)OC)[C@H](OC(C)=O)[C@]5(CC)C=CCN6CC[C@]43[C@@H]65)C2)C1 [Vincristine, reference compound]",EC50,"DU-145 (prostate); Homo sapiens, DU-145, 72 h",0.085 µM
same,EC50,"KB (nasopharyngeal); Homo sapiens, 72 h",0.006 µM
same,EC50,"ZR-751 (breast); Homo sapiens, ZR-75-1, 72 h",0.04 µM
same,EC50,[2]; [4],0.04 µM
same,EC50,[2]; [5],0.04 µM
same,EC50,"[3]; Homo sapiens, KBVIN, 72 h",5.3 µM
COc1ccc2c(CNCCCCCCCCCCC(=O)O)cc3cc4c(cc3c2c1)OCO4,melting point,,146 to 148 °C
"COc1ccc(/C(=C\c2cc(OC)c(OC)cc2[N+](=O)[O-])CN2CCC[C@H]2C(=O)O)cc1 [Compound 40, 1-[3-(4,5-Dimethoxy-2-nitrophenyl)-2-(4-methoxyphenyl)-allyl]-pyrrolidine-2-carboxylic acid]",IC50,"[1]; Homo sapiens, Table 3",45200 nM
"O=C(O)c1cc2cc3c(cc2c2cc(OCc4ccccc4)ccc12)OCO3 [Compound 7a, 2,3-Methylenedioxy-6-benzyloxy-phenanthrene-9-carboxylic acid]",melting point,,263 to 265 °C
"COc1ccc(/C(=C\c2ccc(OC)c(OC)c2)CN2CCC[C@H]2CO)cc1 [Compound 42, {1-[3-(3,4-Dimethoxyphenyl)-2-(4-methoxyphenyl)allyl]-pyrrolidin-2-yl}-methanol]",IC50,"[1]; Homo sapiens, Table 3",52200 nM
"O=C(O)[C@@H]1CCCN1C(=O)c1cc2cc3c(cc2c2cc(O)ccc12)OCO3 [Compound 22, N-(2,3-Methylenedioxy-6-hydroxy-phenanthr-9-ylcarbonyl)-L-proline]",melting point,,230 to 231 °C
same,IC50,[1]; [8],39700 nM
"COc1ccc2c(CN3CCCC[C@H]3C(=O)O)cc3cc(OC)c(OC)cc3c2c1 [Compound 37, N-(2,3,6-Trimethoxyphenanthr-9-ylmethyl)-L-2-piperidinecarboxylic acid]",EC50,[1],9700 nM
"COc1cccc2c1C(=O)c1c(O)c3c(c(O)c1C2=O)C[C@@](O)(C(=O)CO)C[C@@H]3O[C@H]1C[C@H](N)[C@H](O)[C@H](C)O1 [Doxorubicin, reference compound]",EC50,"DU-145 (prostate); Homo sapiens, DU-145, 72 h",0.13 µM
same,EC50,"KB (nasopharyngeal); Homo sapiens, 72 h",0.18 µM
same,EC50,"ZR-751 (breast); Homo sapiens, ZR-75-1, 72 h",0.04 µM
same,EC50,[2]; [4],0.18 µM
same,EC50,[2]; [5],0.18 µM
same,EC50,"[3]; Homo sapiens, KBVIN, 72 h",> 4 µM
"COc1ccc2c(CN3CCCC[C@H]3CO)cc3cc4c(cc3c2c1)OCO4 [Compound 18a, N-(2,3-Methylenedioxy-6-methoxy-phenanthr-9-ylmethyl)-L-2-piperidinemethanol]",EC50,DU-145 (prostate),0.21 µM
same,EC50,ZR-751 (breast),0.1 µM
same,EC50,[2]; [7],0.2 µM
"COc1ccc2c(C(=O)O)cc3cc(OC)c(OC)cc3c2c1 [Compound 7c, 2,3,6-Trimethoxyphenanthrene-9-carboxylic acid]",melting point,,241 to 243 °C
"O=C(O)CCCCCNCc1cc2cc3c(cc2c2cc(OCc4ccccc4)ccc12)OCO3 [Compound 12, N-(2,3-Methylenedioxy-6-benzyloxy-phenanthr-9-ylmethyl)-6-aminohexanoic acid]",melting point,,184 to 186 °C
same,IC50,[1]; [8],1600 nM
"COc1ccc2c3c(c4cc(OC)c(OC)cc4c2c1)C[C@H]1CCCN1C3 [Antofine, reference compound]",EC50,DU-145 (prostate),0.009 µM
same,EC50,KB (nasopharyngeal),0.013 µM
same,EC50,ZR-751 (breast),0.008 µM
same,EC50,[2]; [6],0.008 µM
same,EC50,[2]; [7],0.008 µM
same,EC50,[3],0.009 µM
COc1ccc2c(CNCCCCC(=O)O)cc3cc4c(cc3c2c1)OCO4,melting point,,145 to 146 °C
COc1ccc2c(CNCCCCCC(=O)O)cc3cc4c(cc3c2c1)OCO4,melting point,,167 to 169 °C
"COc1ccc2c(CN3CCCC[C@H]3CO)cc3cc4c(cc3c2c1)OCO4 [Compound 18b, N-(2,3-Methylenedioxy-6-methoxy-phenanthr-9-ylmethyl)-L-2-piperidinemethanol hydrochloride]",EC50,DU-145 (prostate),0.09 µM
same,EC50,KB (nasopharyngeal),0.12 µM
same,EC50,ZR-751 (breast),0.08 µM
same,EC50,[2]; [7],0.16 µM
same,EC50,[3],0.09 µM
CCCCCC(CCCCCO)NCc1cc2cc3c(cc2c2cc(OC)ccc12)OCO3 (centres unmarked),melting point,,122 to 124 °C
"O=C(O)CCCCCNC(=O)c1cc2cc3c(cc2c2cc(OCc4ccccc4)ccc12)OCO3 [Compound 11, N-(2,3-methylenedioxy-6-benzyloxy-phenanthr-9-ylcarbonyl)-6-aminohexanoic acid]",melting point,,198 to 200 °C
same,IC50,[1]; [8],41200 nM
COc1ccc2c(CNCCCCCC(=O)O)cc3cc(OC)c(OC)cc3c2c1,melting point,,133 to 134 °C
O=C(O)CCCCNCc1cc2cc3c(cc2c2cc(OCc4ccccc4)ccc12)OCO3,melting point,,197 to 199 °C
"COc1ccc(/C(=C\c2cc(OC)c(OC)cc2[N+](=O)[O-])C(=O)N2CCC[C@H]2C(=O)O)cc1 [Compound 39, 1-[3-(4,5-Dimethoxy-2-nitrophenyl)-2-(4-methoxyphenyl)-acryloyl]-pyrrolidine-2-carboxylic acid]",IC50,"[1]; Homo sapiens, Table 3",80000 nM
"COc1ccc2c(CN3CCC[C@H]3CO)cc3cc4c(cc3c2c1)OCO4 [Compound 32, N-(2,3-Methylenedioxy-6-methoxy-phenanthr-9-ylmethyl)-L-prolinol]",melting point,,138 to 139 °C
same,IC50,[1]; [8],700 nM
CC(CCCCO)NCc1cc2cc3c(cc2c2cc(OCc4ccccc4)ccc12)OCO3 (centres unmarked),melting point,,175 to 177 °C
"COC(=O)CCCCCNC(=O)c1cc2cc3c(cc2c2cc(OCc4ccccc4)ccc12)OCO3 [Compound 10, Methyl N-(2,3-methylenedioxy-6-benzyloxy-phenanthr-9-ylcarbonyl)-6-aminohexanoate]",IC50,[1]; [8],41200 nM
"COc1ccc2c(C(=O)O)cc3cc4c(cc3c2c1)OCO4 [Compound 7b, 2,3-Methylenedioxy-6-methoxy-phenanthrene-9-carboxylic acid]",melting point,,293 to 295 °C
